In patent EP0357134B1, “Antihypertensive 3-piperidinyl-indazole derivatives” (priority 1988, dated 1990):

Legend:
Assay type in all cases: in vivo
adult male Wistar rats [1] = experiment: Combined test in rats: apomorphine (APO) test; conditions: Rattus norvegicus, 0.5 h, read-out: Combined test in rats, ED₅₀ in mg/kg (APO)
Procedure: (§1) The experimental animals used in this test were adult male Wistar rats (weight 240 ± 10g). After an overnight fast, the animals were treated subcutaneously or orally with an aqueous solution of the compound under investigation (1ml/100g body weight) (time = zero) and put in isolated observation cages. […] At the end of this 1 hour period (time = 90 minutes) the same animals were injected intravenously with 40 mg/kg of tryptamine (TRY) and the presence of the typical tryptamine-induced bilateral tonic seizures and hyperaemia of the ears was noted. Two hours after pretreatment (time = 120 minutes) finally, the same animals were challenged with 1.25 mg/kg intravenously of norephinephrine (NOR) and possible mortality was looked for up to 60 minutes later.
(§2) The table 4 gives the ED₅₀-values of a number of the compounds under consideration. As used herein, the ED₅₀-value represents the dose which protects 50% of the animals from apomorphine-, tryptamine- or norepinephrine-induced phenomena.

adult male Wistar rats [2] = experiment: Combined test in rats: tryptamine (TRY) test; conditions: Rattus norvegicus, 1.5 h, compound subcutaneously or orally, 40 mg/kg tryptamine i.v. at 90 minutes, read-out: Combined test in rats
Procedure: as §1, §2

adult male Wistar rats [3] = experiment: Combined test in rats: norepinephrine (NOR) test; conditions: Rattus norvegicus; protection from norepinephrine-induced mortality; compound subcutaneously or orally; 1.25 mg/kg norepinephrine i.v. at 120 minutes, observed up to 60 minutes; read-out: Combined test in rats; ED₅₀ in mg/kg (NOR)
Procedure: as §1, §2

beagle dogs = experiment: The apomorphine test in dogs (APO-dog); conditions: Canis lupus familiaris, 1 h; dose protecting 50% of animals from emesis; compound subcutaneously or orally; 0.31 mg/kg (s.c.) apomorphine one hour thereafter; read-out: (APO)-dog test, ED₅₀ in mg/kg
Procedure: The method used is described by P.A.J. Janssen and C.J.E. Niemegeers in Arzneim.-Forsch. (Drug Res.), 9,765-767 (1959). The compounds listed in table 4 were administered subcutaneously or orally to beagle dogs at different doses and the animals were challenged one hour thereafter with a standard dose of 0.31 mg/kg (s.c.) of apomorphine.
The table 4 gives the ED₅₀-values of a number of the compounds under consideration. As used herein, the ED₅₀ value represents the dose which protects 50% of the animals from emesis.

[4] = protection from tryptamine-induced bilateral tonic seizures, ED₅₀ in mg/kg (TRY)-convulsions
[5] = protection from tryptamine-induced hyperaemia of the ears, ED₅₀ in mg/kg (TRY)-hyperaemia
[6] = dose protecting 50% of animals from apomorphine-induced agitation and stereotypic chewing, compound subcutaneously or orally, 1.25 mg/kg apomorphine hydrochloride i.v. at 30 minutes

| SMILES | ED50 (adult male Wistar rats [1]) [mg/kg] | ED50 (adult male Wistar rats [2]; [4]) [mg/kg] | ED50 (adult male Wistar rats [2]; [5]) [mg/kg] | ED50 (adult male Wistar rats [3]) [mg/kg] | ED50 (beagle dogs) [mg/kg] | ED50 (adult male Wistar rats [1]; [6]) [mg/kg] |
| --- | --- | --- | --- | --- | --- | --- |
| Cc1nc2n(c(=O)c1CCN1CCC(c3n[nH]c4cc(F)ccc34)CC1)CCS2 [Compound 2, 6-[2-[4-(6-fluoro-1H-indazol-3-yl)-1-piperidinyl]ethyl]-2,3-dihydro-7-methyl-5H-thiazolo[3,2-a]pyrimidin-5-one] | 5 | 5 | 0.005 | 0.31 | 0.002 |  |
| Cc1nc2ccccn2c(=O)c1CCN1CCC(c2nn(-c3ccc(F)cc3)c3cc(F)ccc23)CC1 [Compound 9] | > 10 | 5 | 0.08 | 5 |  |  |
| Cc1nc2ccccn2c(=O)c1CCN1CCC(c2nn(C)c3cc(F)ccc23)CC1 [Compound 11] | 5 | 0.31 | 0.005 | 0.08 | 0.12 |  |
| Cc1nc2n(c(=O)c1CCN1CCC(c3n[nH]c4cc(F)ccc34)CC1)CCCC2 [Compound 13] | > 10 | 1.25 | 0.02 | 0.31 | 0.015 |  |
| Cc1nc2sccn2c(=O)c1CCN1CCC(c2nn(-c3ccc(F)cc3)c3cc(F)ccc23)CC1 [Compound 16] | > 10 | 5 | 0.08 | > 10 |  |  |
| Cc1nc2sccn2c(=O)c1CCN1CCC(c2n[nH]c3cc(F)ccc23)CC1 [Compound 17] | 5 | 5 | 0.03 | 2 | 0.004 |  |
| Cc1nc2sccn2c(=O)c1CCN1CCC(c2nn(C)c3cc(F)ccc23)CC1 [Compound 18] |  | 1.25 | 0.005 | 1.25 | 0.2 | 5 |
| Cc1nc2scc(C)n2c(=O)c1CCN1CCC(c2nn(-c3ccc(F)cc3)c3cc(F)ccc23)CC1 [Compound 20] | > 10 | ≥ 10 | 0.08 | > 10 |  |  |
| Cc1nc2scc(C)n2c(=O)c1CCN1CCC(c2nn(C)c3cc(F)ccc23)CC1 [Compound 21] | 1.25 | 0.08 | 0.005 | 0.31 | 0.12 |  |
| Cc1nc2n(c(=O)c1CCN1CCC(c3nn(C)c4cc(F)ccc34)CC1)CCS2 [Compound 25] | > 10 | 1.25 | 0.01 | 0.31 | < 0.015 |  |
| Cc1nc2c(C)cccn2c(=O)c1CCN1CCC(c2nn(Cc3ccccc3)c3cc(F)ccc23)CC1 [Compound 29] |  | 5 | ≤ 0.16 | 1.25 | 0.004 | 1.25 |
| COc1ccc(Cn2nc(C3CCN(CCc4c(C)nc5n(c4=O)CCS5)CC3)c3ccc(F)cc32)cc1 [Compound 30, 6-[2-[4-[6-fluoro-1-[(4-methoxyphenyl)methyl]-1H-indazol-3-yl]-1-piperidinyl]ethyl]-2,3-dihydro-7-methyl-5H-thiazolo[3,2-a]pyrimidin-5-one] | > 10 | 10 | 0.08 | 5 | > 0.63 |  |
| COc1ccc2c(C3CCN(CCc4c(C)nc5sccn5c4=O)CC3)n[nH]c2c1 [Compound 34] |  | > 10 | 1.25 | 1.25 | > 0.01 | > 10 |
